Reference: US20250214973A1, “1,4,5-TRISUBSTITUTED-1,2,3-TRIAZOLES AND USES THEREOF” (UNIVERSITY OF PUERTO RICO, priority 2022, published 2025)

Experiments:
[1] = tested on: RAW264.7 macrophage cell line; assay: Wound healing assay; assay type: cell-based, murine; settings: Mus musculus, read-out: inhibition of wound closure, RAW264.7
Protocol: (§1) Mircrographs were digitally acquired at 0, 12, and 24 hours and the area of the wound quantified relative to the distance at time 0. n=3.
Murine macrophage cell line, RAW264.7, plated at equal density were subjected to a scratch in the center and treated with 4c at 0, 150 nM, 250 nM, or 500 nM. Mircrographs were digitally acquired at 0, 12, and 24 hours and the area of the wound quantified relative to the distance at time 0. n=3.

Panc-1 [2] = assay: Cell viability assay (MTT); assay type: cell-based; settings: Homo sapiens, 120 hours, 0-1000 nM
Protocol: (§2) […] Using CellTiter 96 Non-Radioactive Cell Proliferation Assay (Promega, Corp.) according to manufactures' instructions, formazan was used as an indicator of viable cells at an absorbance 570 nm in a Tecan Microplate Reader M100. Data was calculated as fold change from vehicle and fitted using the 4′parameter logic nonlinear regression model in GraphPad Prism software. (n=3 biologic replicates: with 3 technical replicates each).

MDA-MB-435 [3] = assay: Cell viability assay (MTT); assay type: cell-based, human
Protocol: (§3) Cells plated at equal density were treated at 500 nM of compounds. After 72 hours, cell viability was measured by a MTT assay. n=3; * p<0.05, ** p<0.01, *** p<0.001.
(§4) Cells plated at equal density were treated at 250 nM of 4c at 250 nM.
(§5) Data from 3 biologic replicates each with 2 technical replicates. Four parameter dose-response curves generated using GraphPad Prism are shown.
[…]. GI50 was calculated using Graph pad Prism.
as §2
A range of compounds were tested by MTT assays for cell viability in MDA-MB-231 triple negative breast cancer (TNBC) cells and MDA-MB-435 HER2++ cancer cells. […].

MDA-MB-231 [4] = assay: Cell viability assay (MTT); assay type: cell-based; settings: Homo sapiens
Protocol: Cells plated at equal density were treated at 500 nM of compounds. […]
as §4, §5
Cell viability relative to vehicle (100%) is shown.
as §2
A range of compounds were tested by MTT assays for cell viability in MDA-MB-231 triple negative breast cancer (TNBC) cells and MDA-MB-435 HER2++ cancer cells.

Panc-1 [5] = assay: Wound healing assay; assay type: cell-based; settings: Homo sapiens, 24 hr, read-out: inhibition of Panc-1 cell migration
Protocol: as §1
Panc-1 cells plated at equal density were subjected to a scratch in the center and treated with 4c at 0, 150 nM, 250 nM, or 500 nM. Mircrographs were digitally acquired at 0, 12, and 24 hours and the area of the wound quantified relative to the distance at time 0. n=3.

MDA-MB-231 [6] = assay: Initial screening, inhibition of migration (wound gap); assay type: cell-based; settings: Homo sapiens
Protocol: In addition, the inhibition of migration of MDA-MB-231 was determined via the following procedure:
Prior to assays, cells were grown until 80-90% confluence was observed. We used a 75 cm^2 flask for 2.6×10^5 cells/mL in 10 mL and for a 25 cm^2 flask 1.44×10^5 cells/mL in 5 mL. The cells were washed with PBS to remove all traces of FBS. We added 2 mL for a 25 cm^2 flasks or 4 mL for a 75 cm^2 flasks trypsin, and incubated 5-10 min at 37° C. At the end of the incubation time, cells were re-suspended and counted with hemocytometer using 1:2 dilutions with Trypan blue. Subsequently, cell viability was calculated. In a 12 well tissue culture plate, we used the plastic pattern to draw a fine space with a fine marker on the bottom of the plate. Cells were seeded at 1.5-2.2×10^5 cells/mL in 1 mL and incubated for 24 h. Cells were then rinsed with PBS and incubated in starving media (0.5% FBS) overnight. All controls and drugs were tested in triplicate. The negative control for each drug was prepared according to the drug's DMSO concentration. […] The wound was made using a sterile pipette tip of 200 μL. Cells were then rinsed very gently with media without FBS and media with negative controls was added. After a 24 h incubation, the gap distance was evaluated using the software Lumera Infinity Analyze 6.4.0. Pictures were taken at 0, 8, 12 and 24 h using a 10× objective in an Inverted Laboratory Microscope Leica DM IL LED, and an Infinity1-3 3.1 Megapixel USB 2.0 camera CMOS. The percentage of migration was calculated using the following formula: […]

MDA-MB-468 [7] = assay: Cell viability assay (MTT); assay type: cell-based; settings: 500 nM, 72 hours
Protocol: as §3
Equal number of cells were seeded in a 24 well plate and incubated with vehicle or compounds according to this disclosure at concentrations between 1 and 0.001 nM for 72 and 120 hrs. Using CellTiter 96 Non-Radioactive Cell Proliferation Assay (Promega, Corp.) according to manufactures' instructions, formazan was used as an indicator of viable cells at an absorbance 570 nm in a Tecan Microplate Reader M100. Data was calculated as fold change from vehicle and fitted using the 4′parameter logic nonlinear regression model in GraphPad Prism software. (n=3 biologic replicates: with 3 technical replicates each).

MCF-7 = assay: Initial screening, SRB assay GI50; assay type: cell-based; settings: Homo sapiens, MCF7, 48 hrs
Protocol: (§6) For initial screening, the GIso of compounds 4a-4h in the cell lines MDA-MB-231, MDA-MB-435 and MCF-7 was determined via the SRB-assay for 48 hrs as follows:
(§7) A stock solution of compounds was prepared at 50 mM in 100% DMSO. For cells preparation, a flask of 75 cm^2 or 25 cm^2 were used for 2.6×10^5 cells/mL or 1.44×10^5 cells/mL, respectively, with an 80-90% of confluence. Cells were washed with PBS and trypsinized. The concentration of cells was determined using a 1:2 dilutions with Trypan Blue and a hemocytometer. After cell count, the concentration was adjusted to have a 7.0-10.0×10^4 cells/mL. Approximately 100 μL of cells suspension, compounds, control positive and control negative were added in triplicates to a 96 well plate. Positive control used was doxorubicin, and the negative control was DMSO 0.1%. All compounds (4a-h) at 50, 25, 12.5, 6.3, and 1.6 μM were incubated with cells at 37° C. for 48 hrs. For fixation, cold TCA 50% was used and incubated at 4° C. for 1 h. Wells were washed and dried prior to tincture with 100 μL of SRB 0.4%. To remove excess of SRB, acetic acid was used. For analysis, TRIS-BASE Solution (pH=10.5) was used and shaken prior to reading using an ELISA reader at 540 nm and the software SoftMax Pro 4.8. For each compound, 50% growth inhibition (GI50) was calculated from Sigmoidal dose-response curves (variable-slope) that were generated with data obtained from experiments carried out in triplicates (GI50 values were generated with GraphPad Prism V. 6.02, GraphPad Software, Inc.).

MDA-MB-435 [8] = assay: Initial screening, SRB assay GI50; assay type: cell-based; settings: Homo sapiens, 48 hrs, read-out: MDA-MB435 GI50
Protocol: as §6, §7

MDA-MB-231 [9] = assay: Initial screening, SRB assay GI50; assay type: cell-based; settings: Homo sapiens, 48 hrs
Protocol: as §6, §7

MDA-MB-435 [10] = assay: Apoptosis assay, caspase 3/7 activity; assay type: cell-based, human; settings: 500 nM, 48 hours
Protocol: (§8) Cells plated at equal density were treated at 500 nM of compounds. After 48 hours, caspase 3/7 activity was measured by luminescence. n=3; * p<0.05, ** p<0.01.
(§9) Equal number of cells were seeded incubated with vehicle or compounds according to this disclosure at 250 or 500 nM for 48 hrs. Apoptosis was measured using a Caspase-Glo3/7 Luminescence Assay Kit as per manufacturer's instructions (Promega, Corp.). Briefly, Caspase-3/7 Glo reagent was added and incubated at room temperature for 60 min and Caspase-3/7 activities were determined by detecting luminescence using Tecan Microplate Reader M100. (n=3 biologic replicates: with 3 technical replicates each).

MDA-MB-231 [11] = assay: Apoptosis assay, caspase 3/7 activity; assay type: cell-based, human; settings: 500 nM, 48 hours
Protocol: as §8, §9

MDA-MB-468 [12] = assay: Apoptosis assay, caspase 3/7 activity; assay type: cell-based; settings: 500 nM, 48 hours
Protocol: as §8, §9

GI50 (MCF-7) [µM] | GI50 (MDA-MB-435 [8]) [µM] | GI50 (MDA-MB-231 [9]) [µM] | Compound | inhibition at 0.15 µM ([1]; 150 nM) [%] | inhibition at […] ([1]; 250 nM) [%] | GI50 (Panc-1 [2]) [µM] | GI50 (MDA-MB-435 [3]; Homo sapiens, MDA-MB-435, 72 h, read-out: GI50 MDA-MB-435) [µM] | inhibition at […] (MDA-MB-231 [4]; MDA-MB-231, 250 nM for 48 hours (footnote a; title says 500 nM), read-out: % growth inhibition MDA-MB-231) [%] | cytotoxicity at […] (MDA-MB-231 [4]; 250 nM, 48h, text prints MDA-MB-435 TNBC, read-out: inhibition of cell viability) [%] | inhibition at […] (Panc-1 [5]; 250 nM) [%] | inhibition at 0.5 µM (Panc-1 [5]; 500 nM) [%] | inhibition at 0.5 µM (MDA-MB-231 [6]; at 0.5 μM, read-out: Inh. of migration (converted)) [%] | inhibition at 1.6 µM (MDA-MB-231 [6]; at 1.6 μM, read-out: Inh. of migration) [%] | effect on cell viability, MDA-MB-468 (MDA-MB-468 [7]) | effect on cell viability, MDA-MB-435 (MDA-MB-435 [3]; 500 nM) | cytotoxicity at 0.5 µM (MDA-MB-435 [3]; Homo sapiens, MDA-MB-435, 500 nM, 72 hours, read-out: decrease in cell viability, MDA-MB-435) [%] | Caspase 3/7 activity compared to the vehicle, MDA-MB-435 (MDA-MB-435 [10]) | Caspase 3/7 activity compared to the vehicle, MDA-MB-231 (MDA-MB-231 [11]) | Caspase 3/7 activity, MDA-MB-468 (MDA-MB-468 [12])
 |  |  | CCn1c2ccccc2c2cc(-n3nncc3-c3ccccc3)ccc21 (racemic) [MBQ-167, reference compound] | 30 | 30 | 0.155 | 0.145 | 36 | ~40 | 40 | 50 |  |  |  |  |  |  |  | 
0.04 | 0.08 | 8 | CCn1c2ccccc2c2cc(-n3nnc(C(O)c4cccnc4)c3-c3ccccc3)ccc21 (stereo not shown) [Compound 4b, (1-(9-ethyl-9H-carbazol-3-yl)-5-phenyl-1H-1,2,3-triazol-4-yl) (pyridin-3-yl) methanol] |  |  |  |  |  |  |  |  | 25.2 | 61.4 ± 9.08 | inhibited cell viability | inhibited cell viability | ~80 | increased apoptosis | increased apoptosis | significantly increased
